The source of these data is patent publication US20190185439A1, “RADIOFLUORINATED CARBOXIMIDAMIDES AS IDO TARGETING PET TRACER FOR CANCER IMAGING” (H. LEE MOFFITT CANCER CENTER & RESEARCH INSTITUTE, INC., priority 2016, published 2019).

The structures appear in SMILES notation.

One data set deals with Hela tumor xenografts. The data set can be described thus: MicroPET imaging of Hela tumor xenografts. The format is in vivo, mice. To be noted: for tracer accumulation in tumor: PET. The method, then:
Female athymic C57BL/6 nude mice (4-6 weeks old) were ordered from Charles River Laboratories (Stone Ridge, N.Y., U.S.A.) and housed in a temperature and humidity controlled room. After 7 to 14 days of acclimatization, a total of 5×10^6 Hela cells were inoculated subcutaneously in 200 μL serum-free medium into the right flank of hind leg. Once tumors reach an appropriate size (3-4 mm in diameter) the mice were randomized into 5 groups (4/group). Then the mice in every group were randomized into two subgroups (rHu IFN-γ treatment or no rHu IFN-γ treatment). All the rHu IFN-γ treatment mice were injected i.p. of 1.5×10^5 U rHu IFN-γ/mouse/day. 24 h later, group one of mice were anesthetized by gas inhalation (2% vol/vol isoflurane in oxygen), then mice were euthanized and tumor tissues were dissected for further IDO western blotting and IHC in vitro. The same operation can be repeated at 48 h, 72 h, 96 h and 120 h points.
In order to evaluate the in vivo imaging performance of [^18F]IDO49 to IDO tumors, microPET imaging was performed on nude mice bearing Hela tumor xenografts both rHu IFN-γ treatment and none rHu IFN-γ treatment using the Inveon small-animal PET/CT scanner (Siemens). Anesthesia was induced with 4-5% isoflurane and maintained with 1-3% isofluorane delivered with a mixed air/oxygen through a closed nose cone throughout the PET imaging session. Mice bearing Hela tumor xenografts with rHu IFN-γ treatment were injected with 3.70-7.40 MBq (100-200 μCi) of [^18F]IDO49 in 200 μL of saline, and the baseline control mice with none rHu IFN-γ treatment was injected with the same radiotracer. PET data were collected for 90 min following radioligand administration and reconstructed into 38 dynamic frames of increasing length (6×10, 6×20, 4×30, 9×60, 2×180, 8×300, and 3×600 s). For a comparative study, [^11C]AMT PET imaging scan was also performed on Hela tumor mice at 60 min after intravenous injection of [^11C]AMT PET (3.7 MBq). The images were reconstructed and the regions of interest (ROIs) were drawn over the tumor and muscle, PET images were converted to percent injected dose per gram (%ID/g of tissue) for evaluation of tumor specificity. Image analysis was performed using the Inevon Research Workplace software.

The nature of data set [1]: Lipophilicity determination (shake-flask, n-octanol/PBS pH 7.4). To be noted: n-octanol/buffer pH 7.4, shake-flask. Type of data set: physicochemical. As for the experimental part: [^18F]IDO49 (2-30 kBq in 30 μL of water) was added to a two-layer system of n-octanol (500 μL) and 0.1M phosphate buffered saline (PBS) pH 7.4 (500 μL) in an eppendorf vial. The vessel was vortexed for 3 min and then centrifuged at 10000 rpm for 2 min. An aliquot of each layer (100 μL) was assessed for radioactivity in a wiper counter. The partition coefficient (logD7.4) was calculated as the decimal logarithm of the ratio between the counted radioactivity in the n-octanol layer and the counted radioactivity in the aqueous layer. logD7.4=(Count of n-octanol sample−Count of background)/(Count of PBS sample−Count of background). CLogP (calculated LogP) values were determined using CHEMBIODRAW ULTRA 12.0 software (Cambridge soft. Perkin-Elmer, Waltham, Mass., USA).
LogD (n-octanol/buffer pH 7.4 partition coefficient) of [^18F]IDO49 was measured using the shake-flask method and the calculated LogP (cLogP, n-octanol/water partition coefficient) was determined using CHEMBIODRAW software.

The subject of data set [2] is IFN-γ stimulated HeLa cells. Briefly: Hela cell uptake of radioligands. The format is cell-based, human. The method, then:
HeLa cells were seeded in a 24 well culture plate at a density of 2×10^4 per well in 400 μL culture media w/FBS. After grown overnight (16 h), human IFN-γ (25 ng/well, 50 ng/mL final concentration) in 100 μL DMEM w/FBS were added into cells. The cells were rinsed with phosphate-buffered saline (PBS), and 500 μL of Earle's Minimum Essential Medium (EMEM) (ATCC 30-2003) and 10% fetal bovine serum was added to the culture wells. […] At each given time point, the cell supernatants were discard and wash the cells with PBS (0.5 mL) 3 times, the cells were subsequently lysed with 150 μL of trypsin-EDTA in each well and incubated for 5 min at 37° C., then collect the cell digestion solution and add another 150 μL of PBS into each well to collect the cells. All measurements were performed with a γ-counter (Wizard; PerkinElmer).
HeLa, PANCO2,HCT116 and 4T1 cells were selected and those cells were then cultured in the absence or presence of IFN-γ as described followed by Western Blotting to confirm IDO expression.

Data set [3] deals with T1, IDO in IFN-γ stimulated HeLa cells (Homo sapiens, UniProt P14902).
T1 construct: native IDO in HeLa cells; endogenous in cells; host or cells: HeLa cells stimulated with human IFN-γ
The data set can be described thus: Competitive cell-binding assay. The format is cell-based. To be noted: blocking with INCB024360 and NLG919, FIG. 8. The method, then: All measurements were performed with a γ-counter (Wizard; PerkinElmer). The specificities of radioligands were determined as percentage.

Data set [4] deals with T2, IDO in IFN-γ induced HeLa cells (Homo sapiens, UniProt P14902).
T2 construct: native IDO in HeLa cells; endogenous in cells; host or cells: HeLa cells stimulated with human IFN-γ
The data set can be described thus: IDO Hela cells assay (kynurenine formation). Type of data set: cell-based. The conditions noted are these: for IFN-γ induced IDO activity in HeLa cell lines inhibited by IDO inhibitors: FIG. 2. The method, then:
Hela cells assay was carried out according to the reference (Takikawa, O., et al. (1988). “Mechanism of interferon-gamma action. Characterization of indoleamine 2,3-dioxygenase in cultured human cells induced by interferon-gamma and evaluation of the enzyme-mediated tryptophan degradation in its anticellular activity.” J Biol Chem 263(4):2041-2048; Yue, E. W., et al. (2009). “Discovery of potent competitive inhibitors of indoleamine 2,3-dioxygenase with in vivo pharmacodynamic activity and efficacy in a mouse melanoma model.” J Med Chem 52(23): 7364-7367) with minor modification. HeLa cells were routinely maintained in Earle's Minimum Essential Medium (EMEM) (ATCC 30-2003) and 10% fetal bovine serum. Cells were kept at 37° C. in a humidified incubator supplied with 5% CO2. The assay was performed as follows: HeLa cells were seeded in a 96 well culture plate at a density of 5×10^3 per well in 100 μL culture media. After grown overnight (16 h), human IFN-γ (50 ng/mL final concentration) and serial dilutions of compounds in 100 μL culture medium per well were added into cells. After an additional 48 hours of incubation, 140 μL of the supernatant per well was transferred to a new 96 well plate. Ten microliters of 6.1 N trichloroacetic acid were mixed into each well and incubated at 50° C. for 30 min to hydrolyze N-formylkynurenine produced by IDO to kynurenine. The reaction mixture was then centrifuged for 10 min at 2500 rpm to remove sediments. One hundred microliters of the supernatant per well were transferred to another 96 well plate and mixed with 100 μL of 2% (w/v) p-dimethylaminobenzaldehyde in acetic acid. The yellow color derived from kynurenine was measured at 492 nm using a SPECTRAmax 250 microplate reader. L-Kynurenine, used as the standard, was prepared in a series of concentrations (200, 100, 50, […], 12.5, 6.3, 3.2, 1.6 μM) in 100 μL HeLa cell culture media and analyzed in the same procedure. The percent inhibition at individual concentrations was determined and the average values of duplicates were obtained. The data was processed using nonlinear regression to generate IC50 values (Prism Graphpad).

A further data set deals with T3, Human IDO (Homo sapiens, UniProt P14902).
T3 construct: purchased enzolifesciences ALX-201-333-C050
The data set can be described thus: IDO enzyme assay. The conditions noted are these: enzyme activity remaining at different inhibitor concentrations. Type of data set: biochemical. The method, then:
The assays were performed at room temperature as described as literature reported with minor revision. […] In each well of 96 well-plate, 10 μL of Human IDO (0.05 mg/mL in KHPO4, 50 mM, PH 6.5) was added into 39 μL buffers (KHPO4, 50 mM, PH 6.5) and 1 μL inhibitor buffer in DMSO (2000, 600, 200, 60, 20, 6, 2, 0.6, 0.2 μM). Then, 50 μL the substrate buffer (4 mM L-tryptophan, 40 mM ascorbate, 20 μM methylene blue, 0.2 mg/mL catalase) was mixed into each well and incubated at 37° C. for 2 hours. Then, 10 μL of 6.1N trichloroacetic acid was mixed into each well and incubated at 52° C. for 30 min to hydrolyze N-formylkynurenine produced by IDO to kynurenine. The reaction mixture was incubated with 100 μL of 0.02 g/mL p-(dimethylamino)benzaldehyde in acetic acid at room temperature for 10 minutes. […] L-Kynurenine used as the standard, was prepared in a series of concentrations (1000, 500, 200, 100, 50, 20, 10 μM). The percent inhibition at individual concentrations was determined and the average values of duplicates were obtained. The data was processed using nonlinear regression to generate IC50 values (Prism Graphpad).

The conditions of data set [5]: in vivo; cited from earlier work.
The mark [6] stands for this setting: IFN-γ treatment Hela tumor mice.

T2 sequence (P14902 whole entry): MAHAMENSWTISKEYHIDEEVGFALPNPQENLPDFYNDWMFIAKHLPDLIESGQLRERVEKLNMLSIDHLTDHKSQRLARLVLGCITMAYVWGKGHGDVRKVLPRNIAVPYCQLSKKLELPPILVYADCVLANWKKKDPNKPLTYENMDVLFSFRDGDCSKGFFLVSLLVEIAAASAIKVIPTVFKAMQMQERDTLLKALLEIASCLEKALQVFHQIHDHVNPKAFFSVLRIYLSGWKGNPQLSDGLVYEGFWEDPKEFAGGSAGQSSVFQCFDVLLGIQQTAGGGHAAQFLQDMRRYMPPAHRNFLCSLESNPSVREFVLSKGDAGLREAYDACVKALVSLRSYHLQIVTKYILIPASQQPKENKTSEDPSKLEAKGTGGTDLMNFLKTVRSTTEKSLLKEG
T3 sequence (P14902 whole entry): as above
T1 sequence (P14902 whole entry): as above

Regarding `ON=C(Nc1ccc(F)c(Cl)c1)c1nonc1NCC[18F]` [[^18F]IDO49], the “radioactive uptake in the kidney” value in the data set with Hela tumor xenografts (60 min dynamic scan) is “high”. For the same molecule, the “tumor to muscle (T/M) relative uptake ratio, peak” value with Hela tumor xenografts (60 min post-injection, IFN-γ treatment Hela tumor mice) is on record as 2.29±0.05. Further, the “tracer accumulation in tumor” value in the data set with Hela tumor xenografts (setting [6]) is “selectively accumulated”. In the data set with Hela tumor xenografts (summed images of dynamic microPET scans), the “average SUV of the tumor, IFN-γ treatment vs none treatment” value is reported as “higher than none treatment”. In data set [1], this molecule yielded a logD7.4 of 1.37±0.02. Besides, the “retention in IDO expression Hela cell line” value in data set [2] (IFN-γ stimulation, different time points) is “retained at favorable levels”. In addition, in data set [3], the “specific binding to IDO in vitro” value is given as “high specific binding”.
Regarding `C[C@](N)(Cc1c[nH]c2ccccc12)C(=O)O` [[^11C]AMT, α-[^11C] methyl-L-tryptophan, reference compound], in the data set with Hela tumor xenografts (setting [6]), the “tracer accumulation in tumor” value was “significant tracer accumulation”.
As for `Nc1nonc1C(=NO)Nc1ccc(F)c(Cl)c1` [IDO5L, 4-amino-N-(3-chloro-4-fluorophenyl)-N′-hydroxy-1,2,5-oxadiazole-3-carboximidamide, reference compound], in data set [4], the “potency in HeLa cell-based assays compared with enzyme assays” value was “slightly more potent” and the “IFN-γ induced IDO activity in HeLa cell lines inhibited by IDO inhibitors” value was “inhibited”. Besides, the “affinity of human IDO for compound” value on Human IDO is reported as “higher affinity”.
As for `Nc1nonc1C(=NO)Nc1ccc([18F])c(Cl)c1` [[^18F]IDO5L, [^18F] 4-amino-N-(3-chloro-4-fluorophenyl)-N′-hydroxy-1,2,5-oxadiazole-3-carboximidamide, reference compound], in data set [1], the logD7.4 is reported as 2.13±0.11. In data set [2] (all time points, PANCO2, HCT116, 4T1 as comparison), the “uptake in IFN-γ stimulated HeLa cells compared with other cell lines” value is given as “remarkably greater”.
Turning to `Cn1cc(C[C@H](N)C(=O)O)c2ccccc21` [L-1-MT], in data set [2] (Hela cells, 120 mins, FIG. 7B), the “inhibition of IDO activity (cell uptake of [18F]IDO5L)” value is “strong inhibition”.
Turning to `NS(=O)(=O)NCCNc1nonc1C(=NO)Nc1ccc(F)c(Br)c1` [INCB024360], in data set [5], the “clearance t1/2” value is below 30 min.
As for `ON=C(Nc1ccc(F)c(Cl)c1)c1nonc1NCCF` [IDO49], in data set [4], the “potency in HeLa cell-based assays compared with enzyme assays” value is reported as “slightly more potent” and the “IFN-γ induced IDO activity in HeLa cell lines inhibited by IDO inhibitors” value was “inhibited”. In addition, the “affinity of human IDO for compound” value at Human IDO is listed as “higher affinity”.
